Patent US20250290117A1, “MOLECULAR PHENOTYPIC ANTIMICROBIAL SUSCEPTIBILITY TESTING” (priority 2024, published 2025)

Legend:
[1] = test system: P. aeruginosa; assay: Molecular phenotypic antimicrobial susceptibility test with direct PCR (no extraction DNA purification step); type: cell-based, Pseudomonas aeruginosa; details: for Ct at Sensitive Breakpoint: P. aeruginosa isolate MRSN1938, Ct at control (average) 12.031; for Molecular Antimicrobial Susceptibility Result: P. aeruginosa isolate MRSN1938, at sensitive breakpoint
Experimental: (§1) Detection of Molecular Phenotypic Antimicrobial Susceptibility. Disclosed herein are the methods for the detection of phenotypic antimicrobial susceptibility via molecular methods. The present invention describes how a specimen 100 with a known microbial load is incubated and then exposed to a panel of antimicrobial agents to determine sensitivity (prevention of growth) or resistance (allowance of growth) to the specific antimicrobial agents tested utilizing molecular methods.
(§2) Sample Collection. Specimens 100 are collected from patients using sterile collection processes that are employed in routine clinical care. Specimens are transported to the testing facility in boric acid preservative. Specimens 100 are subsequently divided into a first sample 104 and a second sample 108.
(§3) Preparation of the Specimens for Testing. The specimens 100 are put through a pathogen identification process using PCR technology (e.g., using the first sample 104). The process for pathogen isolation includes steps of harvesting the pathogen (e.g., via centrifugation), isolating pathogen DNA via a DNA isolation and/or purification kit, and performing PCR on the pathogen DNA via PCR components (e.g., primers, enzymes, buffers) as would be known to the skilled artisan. Simultaneously, an additional aliquot of the same specimen (e.g., the second sample 108) is placed with liquid culture media and incubated for 4-6 hours. This aliquot is used for antimicrobial susceptibility testing if indicated based on the pathogen detection results. After pathogen identification is completed and if more than 10,000 cells/mL of bacteria (e.g., eligible bacteria) are detected in the source specimen, the second sample 108 then enters the antimicrobial susceptibility phase of testing. Specimens 100 with lower pathogen loads could also be utilized in the antibiotic susceptibility phase of testing with or without a longer incubation period.
(§4) Preparation of Antimicrobial Susceptibility Testing Plates. Antimicrobial solutions are prepared at known concentrations. The specific antimicrobials and their concentrations are selected based on the pathogen of interest and the described antimicrobial resistance breakpoints for that specimen pathogen and antimicrobial combination. These antimicrobials have been selected based on those commonly utilized by healthcare providers in routine clinical care for the specific type of suspected infection. The number and types of antimicrobials utilized can be customized based on the infection source, pathogen detected, patient-specific factors such as allergies or other health conditions (e.g., chronic kidney disease or concurrent medication use), or healthcare provider preferences such as antimicrobial availability or cost.
(§5) The antimicrobial solutions are prepared in liquid culture media (such as Muller Hinton Broth) to achieve the desired antimicrobial concentration and are then stored at −80° C. until use. For a given specimen, each antimicrobial is tested at a single or multiple antimicrobial concentration(s) which is its established breakpoints for sensitivity. The antimicrobial solutions are prepared and plated out for each specific pathogen. This allows ease of use on the day of testing after defrosting the plate 112. Table 1, which illustrates the results of molecular phenotypic antimicrobial susceptibility testing when more than one organism is present in the source specimen, provides an example of an antimicrobial plate 112 prepared for this purpose. Of note, control wells containing only culture media are present on all plates 112. This allows for evaluation of pathogen load when no antimicrobial is present.
(§6) Specimen Exposure to Antimicrobial Agents. The 1 mL aliquot of the specimen 100 previously mixed with culture media and incubated is obtained. Using optical density measurements as a guide, the specimen 100 is diluted to 0.5 McFarland. […]

[2] = test system: S. aureus; assay: Traditional culture-based antimicrobial susceptibility test; type: cell-based, Staphylococcus aureus; details: S. aureus isolate NR-46412 HIP13170
Experimental: (§7) Table 5 illustrates the results of an example antimicrobial agent susceptibility test of the current application versus a traditional culture-based antimicrobial agent susceptibility test for multiple specimens with different pathogens, in accordance with one or more embodiments of the disclosure. These specimens were tested with direct PCR (e.g., no extraction DNA purification step prior to PCR). As in Tables 1, 2, and 3, the results of the test of the current application are similar to the results from the traditional test.
(§8) Result Reporting to Healthcare Providers. The results from the antimicrobial exposure are reported to the ordering healthcare provider. This information can be utilized by the healthcare provider when selecting an antimicrobial regimen for their individual patient based on these individual specimen results and patient specific factors. […] The current standard of care for antimicrobial susceptibility testing involves the growth, isolation, and exposure of pathogens to antimicrobials. This traditional culture and sensitivity process can take multiple days to obtain results, limiting the ability of healthcare providers to receive timely results to make actionable changes in patient care or management. Healthcare providers desire a method to obtain antimicrobial susceptibility results with quicker turn-around-time. This application discloses a molecular-based phenotypic antimicrobial susceptibility method which involves pathogen exposure to a panel of antimicrobial agents at their specified minimum inhibitory concentration breakpoints for sensitivity. This method allows for more timely antimicrobial susceptibility results.

[3] = test system: Staphylococcus epidermidis; assay: Molecular phenotypic antimicrobial susceptibility test (semi-quantitative PCR after antimicrobial exposure; extraction/DNA purification prior to PCR); type: cell-based
Experimental: as §1, §2, §3, §4, §5, §6

[4] = test system: Acinetobacter baumannii; assay: Traditional culture-based antimicrobial susceptibility test; type: cell-based
Excerpt: Table 2 illustrates the results of an example antimicrobial agent susceptibility test of the current application versus a traditional culture-based antimicrobial agent susceptibility test for […], in accordance with one or more embodiments of the disclosure. This specimen underwent extraction and/or DNA purification prior to PCR. As in Table 1, the results of the test of the current application are similar to the results from the traditional test.
as §8

[5] = test system: pathogen of the specimen; assay: Traditional culture-based antimicrobial susceptibility test (comparison of Table 7); type: cell-based; details: E. coli isolate 1189
Experimental: as §8, with “Table 7 illustrates the results of an example antimicrobial agent susceptibility test of the current application versus a traditional culture-based antimicrobial agent susceptibility test at multiple incubation timepoints, in accordance with one or more embodiments of the disclosure. These specimens were tested with direct PCR (e.g., no extraction DNA purification step prior to PCR). […] Result” for “Result”

[6] = test system: P. aeruginosa; assay: Traditional culture-based antimicrobial susceptibility test; type: cell-based, Pseudomonas aeruginosa; details: P. aeruginosa isolate MRSN1938
Experimental: as §7, §8

[7] = S. epidermidis isolate 1, Ct at control (average) 10.611
[8] = S. epidermidis isolate 1, at sensitive breakpoint
[9] = S. epidermidis isolate 2, Ct at control (average) 11.861
[10] = S. epidermidis isolate 2, at sensitive breakpoint
[11] = S. epidermidis isolate 3, Ct at control (average) 12.941
[12] = S. epidermidis isolate 3, at sensitive breakpoint
[13] = S. epidermidis isolate 4, Ct at control (average) 11.861
[14] = S. epidermidis isolate 4, at sensitive breakpoint
[15] = S. epidermidis isolate 5, Ct at control (average) 12.941
[16] = S. epidermidis isolate 5, at sensitive breakpoint

Molecule | Traditional Culture Result [2] | Traditional Culture Result ([4]; A. baumannii isolate 4) | Traditional Culture Result ([4]; A. baumannii isolate 5) | Traditional Culture Result [5] | Traditional Culture Result ([4]; A. baumannii isolate 1) | Traditional Culture Result ([4]; A. baumannii isolate 2) | Traditional Culture Result ([4]; A. baumannii isolate 3) | further results
C[C@H]1COc2c(N3CCN(C)CC3)c(F)cc3c(=O)c(C(=O)O)cn1c23 [Levofloxacin] |  |  |  |  |  |  |  | Ct at Sensitive Breakpoint [1]: 12.853; Molecular Antimicrobial Susceptibility Result [1]: Resistant
CN[C@H](CC(C)C)C(=O)N[C@H]1C(=O)N[C@@H](CC(N)=O)C(=O)N[C@H]2C(=O)N[C@H]3C(=O)N[C@H](C(=O)N[C@H](C(=O)O)c4cc(O)cc(O)c4-c4cc3ccc4O)[C@H](O)c3ccc(c(Cl)c3)Oc3cc2cc(c3O[C@@H]2O[C@H](CO)[C@@H](O)[C@H](O)[C@H]2O[C@H]2C[C@](C)(N)[C@H](O)[C@H](C)O2)Oc2ccc(cc2Cl)[C@H]1O [Vancomycin] | Resistant |  |  |  |  |  |  | Ct at Sensitive Breakpoint [3, 7]: 12.950; Molecular Antimicrobial Susceptibility Result [3, 8]: Sensitive (Antimicrobial wells with pathogen load detected below the control wells (typically >2 cycle thresholds later) may be reported as Sensitive); Ct at Sensitive Breakpoint [3, 9]: 18.235; Molecular Antimicrobial Susceptibility Result [3, 10]: Sensitive (Antimicrobial wells with pathogen load detected below the control wells (typically >2 cycle thresholds later) may be reported as Sensitive); Ct at Sensitive Breakpoint [3, 11]: 18.173; Molecular Antimicrobial Susceptibility Result [3, 12]: Sensitive (Antimicrobial wells with pathogen load detected below the control wells (typically >2 cycle thresholds later) may be reported as Sensitive); Ct at Sensitive Breakpoint [3, 13]: 20.001; Molecular Antimicrobial Susceptibility Result [3, 14]: Sensitive (Antimicrobial wells with pathogen load detected below the control wells (typically >2 cycle thresholds later) may be reported as Sensitive); Ct at Sensitive Breakpoint [3, 15]: 8.719; Molecular Antimicrobial Susceptibility Result [3, 16]: Resistant
Gentamicin | Resistant | Sensitive | Sensitive | Sensitive |  |  |  | 
CO[C@@]1(NC(=O)Cc2cccs2)C(=O)N2C(C(=O)O)=C(COC(N)=O)CS[C@@H]21 [Cefoxitin] | Resistant |  |  | Resistant |  |  |  | 
Ampicillin/Sulbactam |  | Sensitive | Sensitive |  |  |  |  | 
Cc1nnc(SCC2=C(C(=O)O)N3C(=O)[C@@H](NC(=O)Cn4cnnn4)[C@H]3SC2)s1 [Cefazolin] |  |  |  | Resistant |  |  |  | 
Piperacillin/Tazobactam |  | Resistant | Resistant | Sensitive | Resistant | Resistant | Resistant | Ct at Sensitive Breakpoint [1]: 13.375; Molecular Antimicrobial Susceptibility Result [1]: Sensitive (Antimicrobial wells with pathogen load detected below the control wells (typically >2 cycle thresholds later) may be reported as Sensitive); Traditional Culture Result [6]: Sensitive
CC1(C)S[C@@H]2[C@H](NC(=O)[C@H](N)c3ccccc3)C(=O)N2[C@H]1C(=O)O [Ampicillin] |  |  |  | Resistant |  |  |  | 
CO/N=C(\C(=O)N[C@@H]1C(=O)N2C(C(=O)O)=C(CSc3nc(=O)c(=O)[nH]n3C)CS[C@H]12)c1csc(N)n1 [Ceftriaxone] |  | Resistant | Resistant | Resistant | Resistant | Resistant | Resistant | 
C[C@@H](O)[C@H]1C(=O)N2C(C(=O)O)=C(S[C@@H]3CN[C@H](C(=O)N(C)C)C3)[C@H](C)[C@H]12 [Meropenem] |  | Resistant | Resistant | Sensitive | Resistant | Resistant | Resistant | Ct at Sensitive Breakpoint [1]: 12.404; Molecular Antimicrobial Susceptibility Result [1]: Resistant; Traditional Culture Result [6]: Resistant*
Trimethoprim/Sulfamethoxazole [TMP/SMX] | Sensitive | Sensitive | Sensitive | Sensitive | Sensitive | Sensitive | Sensitive | Ct at Sensitive Breakpoint [3, 7]: 10.79; Molecular Antimicrobial Susceptibility Result [3, 8]: Resistant; Ct at Sensitive Breakpoint [3, 9]: 10.503; Molecular Antimicrobial Susceptibility Result [3, 10]: Resistant; Ct at Sensitive Breakpoint [3, 11]: 11.341; Molecular Antimicrobial Susceptibility Result [3, 12]: Resistant; Ct at Sensitive Breakpoint [3, 13]: 10.970; Molecular Antimicrobial Susceptibility Result [3, 14]: Resistant; Ct at Sensitive Breakpoint [3, 15]: 12.620; Molecular Antimicrobial Susceptibility Result [3, 16]: Resistant
